One assay has as its target T1, NK1 receptor (Homo sapiens, UniProt P25103).
T1 construct: endogenous in cells; host or cells: UC11 cells
As to the kind of experiment: Antagonism of NK1 receptor mediated (SP-induced) phosphatidylinositol turnover in UC11 cells. The class given is cell-based. Particulars: UC11 cells, SP; for NK-1 RECEPTOR -SLOPE: Schild analysis; for NK-1 RECEPTOR pA2: Schild analysis of 2-3 experiments, 95% confidence limits on next line. As for the experimental part: (§1) ANTAGONISM OF NK1 AND NK2 RECEPTOR MEDIATED PHOSPHATID[…]
(§2) Tachykinin-mediated inositol phosphate accumulation was measured in UC11 or SKLKB82#3 cells in the presence and absence of NK1 or NK2 receptor antagonists, respectively. Tissues were incubated in Krebs-Henseleit buffer at 37° C. with 95% O2 -5% CO2 gassing. Tissues were then incubated with fresh buffer containing 100 μCi of myo-[2-^3 H(N)] inositol at 37° C. for 60 min with gentle gassing. After washing twice in 5 ml room temperature buffer containing 10 mM LiCl, tissues were incubated for 30 min at room temperature with a buffer change at 15 min. Buffer was removed and Krebs-Henseleit buffer (containing 40 μg/ml bacitracin, 4 μg/ml each of leupeptin and chymostatin, 0.1% bovine serum albumin and 10 mM each of thiorphan and LiCl) added. After 15 min, SP was added to UC11 cells or NKA to SKLKB82#3 cells at various concentrations to start the reaction. After incubation for 60 min at room temperature the reaction was terminated by addition of 930 μl chloroform: methanol (1:2 by volume) to each tube, followed by 310 μl chloroform and 310 μl doubly distilled water. Samples were vortexed, centrifuged, and 0.9 ml of the aqueous (top) phase removed and added to 2 ml ddH2 O. The mixture was vortexed and loaded onto a 50% Bio-Rad AG 1-X8 (formate form, 100-200 mesh) exchange column (Bio-Rad Laboratories, Hercules, Calif.). The columns were washed, in order, with: 1) 10 ml doubly distilled water, 2) 5 ml of 5 mM disodium tetraborate/60 mM sodium formate, and 3) 5 ml of 1M ammonium formate/0.1M formic acid. The third elution was collected and 1 ml counted in 7 ml scintillation fluid. A 50 μl aliquot of the organic (bottom) phase was removed, dried in a scintillation vial and counted in 7 ml scintillation fluid.
(§3) The ratio of DPM in the aqueous phase aliquot (total inositol phosphates) to the DPM in the 50 μl organic phase aliquot (total [^3 H]inositol incorporated) was calculated for each sample. Data are expressed as a percent of agonist-induced accumulation of [^3 H]-inositol phosphates over basal levels. The ratios in the presence of test compound and/or standards were compared to the ratios for control samples (i.e. no stimulating agonist). Dose-response graphs were constructed and the abilities of the test compounds to inhibit tachykinin-induced phosphatidyinositol turnover determined with the aid of a computer program. […] Data is expressed as percent stimulation of total inositol phosphate accumulation over basal levels and normalized to the maximum response produced by SP. […] Schild analysis is performed using dose response curves (such as those presented in FIGS. 1a and 1b) to obtain a value indicative of the strength of a competitive antagonist and is expressed as the pA2, which is the negative logarithm of the molar concentration of antagonist which reduces the effect of a dose of agonist to one-half of that expected at the dose of agonist.

In assay [1] the target is T2, NK2 receptor (Bos taurus, UniProt P05363).
T2 construct: expressed in transfected cells; host or cells: SKLKB82#3 cells (murine B82 fibroblasts by own knowledge)
T2 sequence (P05363 1-384): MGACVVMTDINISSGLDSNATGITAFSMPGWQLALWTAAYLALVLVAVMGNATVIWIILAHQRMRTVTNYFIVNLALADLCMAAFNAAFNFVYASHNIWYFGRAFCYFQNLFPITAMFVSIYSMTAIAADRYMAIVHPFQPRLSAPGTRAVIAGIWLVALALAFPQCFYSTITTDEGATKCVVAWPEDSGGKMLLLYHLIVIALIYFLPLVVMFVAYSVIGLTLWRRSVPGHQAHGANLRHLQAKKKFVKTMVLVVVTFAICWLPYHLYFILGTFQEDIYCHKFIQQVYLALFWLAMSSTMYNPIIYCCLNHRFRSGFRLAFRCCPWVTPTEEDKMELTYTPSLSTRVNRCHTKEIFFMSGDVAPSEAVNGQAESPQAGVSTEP
As to the kind of experiment: Antagonism of NK2 receptor mediated (NKA-induced) phosphatidylinositol turnover in SKLKB82#3 cells. It counts as cell-based. The note with it: SKLKB82#3 cells, NKA; for NK-2 RECEPTOR -SLOPE: Schild analysis; for NK-2 RECEPTOR pA2: Schild analysis of 2-3 experiments, 95% confidence limits on next line. As for the experimental part: as §1, §2, §3

Another assay concerns NK1 and NK2 receptors. As to the kind of experiment: Antagonism of capsaicin aerosol induced respiratory effects in conscious guinea pigs. It counts as in vivo, guinea pig. Particulars: for SRE NUMBER (coughs/gasps): 19 min capsaicin exposure; for SRE NUMBER (coughs/gasps) / DYSPNEA ONSET / MAXIMUM PRESSURE INCREASE: mean and SEM; for DYSPNEA INCIDENCE / DYSPNEA ONSET / MAXIMUM PRESSURE INCREASE: capsaicin aerosol 0.001%; for antagonism of effects of capsaicin aerosol (in words): administered orally; for inhibition of endogenous tachykinins released by capsaicin aerosol (in words): guinea pig, in vivo. The protocol: (§4) ANTAGONISM OF NKA AND CAPSAICIN INDUCED R[…] IN CONSCIOUS GUINEA PIGS
(§5) In vivo experiments were performed using male Duncan Hartley guinea pigs (250-350 g). Changes in conscious breathing patterns were monitored in four animals simultaneously using modified whole body plethysmography consisting of four small plexiglass boxes each connected to a reference box via Validyne DP 45-16 differential pressure transducers. The 4 boxes were equipped with an air supply line (also used for aerosol delivery) and an exhaust air line. Supply and exhaust lines were of the same length and narrow bore and arose from a common supply chamber and vented to a common exhaust chamber. This system was used to ensure that fluctuations in supply air and atmospheric pressure would remain in phase and be eliminated from the net signal by the differential pressure transducers. The analog pressure signals were digitalized via a Data Translation DT2821 A to D board. Data were collected at a rate of 100 samples/second/animal. Each cycle of pressure change was analyzed using the following parameters: rising and falling slope determined between minimum and maximum pressures, the ratio of rising over falling slope, and the magnitude of the change between initial trough pressure and peak cycle pressure. Using these values (and observing the animals) the pressure cycles were characterized into normal breaths, forced exhalations (apparent by abdominal heaving), significant respiratory events (SREs; usually coughs, less often sneezes or gasps which were characterized by transient, extremely large pressure increases which were distinguishable from noise) and movement/noise with a PCAT 286 running a System V UNIX operating system. Dyspnea was defined as a significant, sustained increase in plethysmograph pressure which was associated with an observable shift to labored breathing in the animal.
(§6) During the course of a typical experiment in which airway responsiveness to various bronchoconstricting agents was examined, aerosols were delivered for 19 min (0.33 ml/min) using a DeVilbiss Ultraneb 99 ultrasonic nebulizer and animals monitored during this time. Prior to nebulization, 1 min of resting breathing was collected to establish a baseline pressure. […] The vehicle for nebulization of all bronchoconstrictive agents was phosphate buffered saline (pH 7.4) which elicited no r[…] itself. Putative tachykinin antagonists were administered either (i.v.) 20 min prior to onset of aerosol exposure or orally 1 hour prior to onset (to guinea pigs after an overnight fast).
Capsaicin aerosol is known to promote release of the tachykinins SP and NKA from sensory nerves in the airways of guinea pigs which may then act upon NK1 and NK2 receptors, respectively to elicit r[…]. The ability of the compounds of Example 3A; and Example 20A to attenuate capsaicin-induced r[…], shown in Table 7a, is inferred from their ability to reduce incidence of dyspnea, prolong the onset of the response and reduce the number of coughs/gasps which occur during aerosol exposure.

The subject of assay [2] is NK2 receptor. The assay is described as follows: Antagonism of NKA aerosol induced respiratory effects in conscious guinea pigs. The note with it: 20 min prior to NKA aerosol (0.05%); for DYSPNEA ONSET: mean and SEM. It counts as in vivo, guinea pig. The protocol: as §4, §5, §6
Table 6 illustrates the effects of the compounds of Example 3; Example 20A; and Example 5A on r[…] induced by NKA aerosol. […] These effects were dose dependent i.e. the higher the dose of compound, the greater attenuation of NKA-mediated effects.

Where [3] appears, read: 25 mg/kg oral gavage 1 hr prior.
Where [4] appears, read: 50 mg/kg oral gavage 1 hr prior.
The mark [5] stands for this setting: 100 mg/kg oral gavage 1 hr prior.

Results on four molecules are retold here after patent US5648366A, “Substituted pyrrolidin-3-yl-alkyl-piperidines” (Merrell Pharmaceuticals Inc., priority 1995, dated 1997).

Structures are written as SMILES. Where a name gives a salt, the structure may show the parent alone.

T1 sequence (P25103 whole entry): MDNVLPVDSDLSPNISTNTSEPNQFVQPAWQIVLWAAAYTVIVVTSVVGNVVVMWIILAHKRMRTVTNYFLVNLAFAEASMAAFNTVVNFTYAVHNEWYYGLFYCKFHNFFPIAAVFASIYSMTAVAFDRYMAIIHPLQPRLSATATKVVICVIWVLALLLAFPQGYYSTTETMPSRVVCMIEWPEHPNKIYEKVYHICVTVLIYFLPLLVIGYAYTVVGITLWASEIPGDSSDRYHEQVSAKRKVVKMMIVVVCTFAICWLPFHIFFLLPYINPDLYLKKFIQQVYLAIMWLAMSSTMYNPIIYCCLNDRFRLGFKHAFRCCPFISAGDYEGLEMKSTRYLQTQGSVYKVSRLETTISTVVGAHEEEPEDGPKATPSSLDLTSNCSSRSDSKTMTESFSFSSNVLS

As to `COc1cc(C(=O)N2CCC(CCN3CCC(C(N)=O)(c4ccccc4)CC3)(c3ccc(Cl)c(Cl)c3)C2)cc(OC)c1OC` (single isomer, unassigned; (+)) [Example 20, (+)-1-[2-[3-(3,4-dichloro-phenyl)-1-(3,4,5-trimethoxy-benzoyl)-pyrrolidin-3-yl]-ethyl]-4-phenyl-piperidine-4-carboxylic acid amide], the “NK-1 RECEPTOR -SLOPE” value on NK1 receptor is 1.03. Further, at NK2 receptor [1], the “NK-2 RECEPTOR -SLOPE” value was found to be 1.00.

Consider `COc1cc(C(=O)N2CCC(CCN3CCC(C(N)=O)(c4ccccc4)CC3)(c3ccc(Cl)c(Cl)c3)C2)cc(OC)c1OC` (racemic) [Example 3A, 1-[2-[3-(3,4-dichloro-phenyl)-1-(3,4,5-trimethoxy-benzoy1)-pyrrolidin-3-yl]-ethyl]-4-phenyl-piperidine-4-carboxylic acid amide hydrochloride], for which, on NK1 receptor, the “NK-1 RECEPTOR -SLOPE” value came to 0.90 and the “NK-1 RECEPTOR pA2” value was 7.91. Further, at NK2 receptor [1], the “NK-2 RECEPTOR -SLOPE” value is 0.73 and the “NK-2 RECEPTOR pA2” value is recorded as 8.75. In the assay with NK1 and NK2 receptors (10 mg/kg intravenous), the “SRE NUMBER (coughs/gasps)” value turned out to be 8.50 ± 1.9, the “DYSPNEA INCIDENCE” value is 89%, the “DYSPNEA ONSET” value was found to be 480 ± 80 s and the “MAXIMUM PRESSURE INCREASE” value is on record as 0.83 ± 0.18 mmH2 O. Also, in the assay with NK1 and NK2 receptors (setting [3]), the “SRE NUMBER (coughs/gasps)” value was 4.6 ± 1.0, the “DYSPNEA INCIDENCE” value stood at 80%, the “DYSPNEA ONSET” value stood at 424 ± 120 s and the “MAXIMUM PRESSURE INCREASE” value came out at 0.7 ± 0.2 mmH2 O. Besides, in the assay with NK1 and NK2 receptors (setting [4]), the “SRE NUMBER (coughs/gasps)” value is 2.8 ± 0.8, the “DYSPNEA INCIDENCE” value stood at 70%, the “DYSPNEA ONSET” value was 434 ± 152 s and the “MAXIMUM PRESSURE INCREASE” value is listed as 0.4 ± 0.1 mmH2 O. In addition, in the assay on NK1 and NK2 receptors (setting [5]), the “SRE NUMBER (coughs/gasps)” value stood at 2.1 ± 0.5, the “DYSPNEA INCIDENCE” value turned out to be 50%, the “DYSPNEA ONSET” value came to 360 ± 120 s and the “MAXIMUM PRESSURE INCREASE” value is 0.4 ± 0.1 mmH2 O. For the same molecule, in the assay with NK1 and NK2 receptors, the “antagonism of effects of capsaicin aerosol (in words)” value is given as “antagonize the effects of capsaicin aerosol when administered orally” and the “inhibition of endogenous tachykinins released by capsaicin aerosol (in words)” value is on record as “inhibit the endogenous tachykinins released by capsaicin aerosol”.

As to `COc1cccc(OC)c1C(=O)N1CCC(CCN2CCC(C(N)=O)(c3ccccc3)CC2)(c2ccc(Cl)c(Cl)c2)C1` (stereo not drawn) [Example 5], in the assay on NK1 and NK2 receptors (setting [3]), the “SRE NUMBER (coughs/gasps)” value stood at 4.4 ± 1.2, the “DYSPNEA INCIDENCE” value was 66.7%, the “DYSPNEA ONSET” value is 253 ± 47 s and the “MAXIMUM PRESSURE INCREASE” value was determined as 0.7 ± 0.1 mmH2 O. In the assay on NK1 and NK2 receptors (setting [4]), the “SRE NUMBER (coughs/gasps)” value is given as 4.9 ± 1.9, the “DYSPNEA INCIDENCE” value worked out at 85.7%, the “DYSPNEA ONSET” value is 384 ± 85 s and the “MAXIMUM PRESSURE INCREASE” value is listed as 0.5 ± 0.1 mmH2 O. In the assay on NK1 and NK2 receptors, the “antagonism of effects of capsaicin aerosol (in words)” value is recorded as “antagonize the effects of capsaicin aerosol when administered orally” and the “inhibition of endogenous tachykinins released by capsaicin aerosol (in words)” value is “inhibit the endogenous tachykinins released by capsaicin aerosol”.

For the molecule `COc1cccc(OC)c1C(=O)N1CCC(CCN2CCC(C(N)=O)(c3ccccc3)CC2)(c2ccc(Cl)c(Cl)c2)C1` (stereo not drawn) [Example 5A, 1-[2-[3-(3,4-dichloro-phenyl)-1-(2,6-dimethoxy-benzoyl)-pyrrolidin-3-yl]-ethyl]-4-phenyl-piperidine-4-carboxylic acid amide hydrochloride], at NK1 receptor, the “NK-1 RECEPTOR -SLOPE” value is on record as 1.17 and the “NK-1 RECEPTOR pA2” value is given as 7.32. Further, on NK2 receptor [1], the “NK-2 RECEPTOR -SLOPE” value stood at 1.11 and the “NK-2 RECEPTOR pA2” value is given as 7.35. Moreover, in the assay with NK2 receptor [2] (5 mg/kg), the “DYSPNEA INCIDENCE” value worked out at 60% and the “DYSPNEA ONSET” value was 654 ± 37 s. Moreover, in the assay with NK2 receptor [2] (10 mg/kg), the “DYSPNEA INCIDENCE” value came out at 54% and the “DYSPNEA ONSET” value stood at 608 ± 65 s.
